Results taken from patent US5877212A (priority 1997, dated 1999).
Read-outs that look alike come from different tables or passages of the source.

Experiments:
[1] = water; cited from earlier work
[2] = assay type: physicochemical
[3] = in vivo
[4] = in vivo, pH 4.8
[5] = set-up: species or system human; details: in vivo

| SMILES | pK1 (pKa) [1] | also measured |
| --- | --- | --- |
| O=C(O)C(O)CO (racemic) [DL-Glyceric acid, 2,3-dihydroxypropanoic acid] | 3.64 | – |
| CCC(O)C(=O)O (centres unmarked) [2-Hydroxybutanoic acid] | 3.65 | – |
| O=C(O)C(O)CCl (centres unmarked) [3-Chlorolactic acid] | 3.12 | – |
| CC(O)(C(=O)O)c1ccccc1 (centres unmarked) [Atrolactic acid, 2-phenyl 2-methyl 2-hydroxyethanoic acid] | 3.53 | – |
| O=C(O)C(O)C(O)C(O)C(O)CO [D-Gluconic acid, 2,3,4,5,6-pentahydroxyhexanoic acid] | 3.86 | – |
| O=C(O)C(O)C(O)C(O)C(O)C(=O)O (centres unmarked) [Glucaric acid, 2,3,4,5-tetrahydroxyhexane-1,6-dioic acid] | 5.00 | – |
| O=C(O)CO [Glycolic acid, 2-hydroxyethanoic acid] | – | anion content (glycolate) ([2]; pH 3.2): 2%; free acid content ([2]; pH 3.2): 8%; anion content (glycolate) ([2]; pH 3.83): 5%; free acid content ([2]; pH 3.83): 5% |
| C[C@H](O)CC(=O)O [L-3-Hydroxybutanoic acid] | 4.41 | – |
| C[C@H](O)C(=O)O [L-Lactic acid, 2-hydroxypropanoic acid] | – | anion content (lactate) ([2]; pH 3.86): 5%; free acid content ([2]; pH 3.86): 5% |
| O=C(O)CC(O)C(=O)O (centres unmarked) [Malic acid, 2-hydroxybutane-1,4-dioic acid] | 3.46 | pK2 [1]: 5.10 |
| O=C(O)C(O)c1ccccc1 (centres unmarked) [Mandelic acid, 2-phenyl 2-hydroxyethanoic acid] | 3.41 | – |
| CC(C)(O)C(=O)O [Methyllactic acid, 2-methyl 2-hydroxypropanoic acid] | 3.72 | – |
| CC(=O)C(=O)O [Pyruvic acid, 2-ketopropanoic acid] | 2.49 | – |
| O=C(O)C(O)C(=O)O [Tartronic acid, 2-hydroxypropane-1,3-dioic acid] | 2.37 | pK2 [1]: 4.74 |
| O=C(O)C(CO)c1ccccc1 (centres unmarked) [Tropic acid, 2-phenyl-3-hydroxypropanoic acid] | 3.53 | – |
| Oc1ccc(O)cc1 [hydroquinone] | – | improvement of pigmented and non-pigmented spots and patches [3]: improved very slightly |
| CC(O)C(=O)O (centres unmarked) [lactic acid, 2-hydroxypropanoic acid] | – | skin irritation [4]: can still irritate sensitive skin or atopic skin; anion content (lactate) ([2]; pH 4.5): 8%; free acid content ([2]; pH 4.5): 2% |
| O=C(O)c1ccccc1O [salicylic acid] | – | improvement of acne lesions [5]: improved slightly |
